Laboratory results from US20090197880A1 (Genelabs Technologies, Inc., priority 2007, published 2009).

Assay: HCV replicon assay (luciferase) in ET (Huh-lucubineo-ET) cell line
Assay type: cell-based
Details: Hepatitis C virus; tested at 10 μM; inhibition of replication relative to no compound control; ET replicon cells, luciferase 48-72 hours; read-out: % inhition at 10 μM

| Structure (SMILES) | inhibition at 10 µM [%] |
| --- | --- |
| O=C(COc1ccc(-c2cc(Cn3cc4nc(-c5cccc(F)c5F)nc-4cn3)on2)cc1)NC1CC1 [Compound 271, N-Cyclopropyl-2-(4-{5-[2-(2,3-difluoro-phenyl)-imidazo[4,5-d]pyridazin-5-ylmethyl]-isoxazol-3-yl}-phenoxy)-acetamide] | 2.27 |
| CC(=O)OCCCOc1ccc(-c2cc(Cn3cc4nc(-c5cccc(F)c5F)nc-4cn3)on2)cc1 [Compound 272, Acetic Acid 3-(4-{5-[2-(2,3-difluoro-phenyl)-imidazo[4,5-d]pyridazin-5-ylmethyl]-isoxazol-3-yl}-phenoxy)-propyl Ester] | 91.1 |
| Fc1cccc(-c2nc3cnn(Cc4cc(-c5ccc(OCCCN6CCOCC6)cc5)no4)cc-3n2)c1F [Compound 273, 2-(2,3-Difluoro-phenyl)-5-{3-[4-(3-morpholin-4-yl-propoxy)-phenyl]-isoxazol-5-ylmethyl}-5H-imidazo[4,5-d]pyridazine] | 94 |
| O=C(O)CCCOc1ccc(-c2cc(Cn3cc4nc(-c5cccc(F)c5F)nc-4cn3)on2)cc1 [Compound 274, 4-(4-{5-[2-(2,3-Difluoro-phenyl)-imidazo[4,5-d]pyridazin-5-ylmethyl]-isoxazol-3-yl}-phenoxy)-butyric Acid] | 54.9 |
| Fc1ccccc1-c1nc2cnn(Cc3cc(-c4cccc(C(F)(F)F)c4)no3)cc-2n1 [Compound 276, 2-(2-Fluoro-phenyl)-5-[3-(3-trifluoromethyl-phenyl)-isoxazol-5-ylmethyl]-5H-imidazo[4,5-d]pyridazine] | 60 |
| CCCCc1ccc(-c2cc(Cn3cc4nc(-c5ccccc5F)nc-4cn3)on2)cc1 [Compound 277, 5-[3-(4-Butyl-phenyl)-isoxazol-5-ylmethyl]-2-(2-fluoro-phenyl)-5H-imidazo[4,5-d]pyridazine] | 99.9 |
| Fc1ccccc1-c1nc2cnn(Cc3cc(-c4ccc(C(F)(F)F)cc4)no3)cc-2n1 [Compound 278, 2-(2-Fluoro-phenyl)-5-[3-(4-trifluoromethyl-phenyl)-isoxazol-5-ylmethyl]-5H-imidazo[4,5-d]pyridazine] | 99.7 |
| Fc1cc(C(F)(F)F)ccc1-c1cc(Cn2cc3nc(-c4ccccc4F)nc-3cn2)on1 [Compound 279, 2-(2-Fluoro-phenyl)-5-[3-(2-fluoro-4-trifluoromethyl-phenyl)-isoxazol-5-ylmethyl]-5H-imidazo[4,5-d]pyridazine] | 98.9 |
| Fc1ccccc1-c1nc2cnn(Cc3cc(-c4ccc(I)cc4)no3)cc-2n1 [Compound 282, 2-(2-Fluoro-phenyl)-5-[3-(4-iodo-phenyl)-isoxazol-5-ylmethyl]-5H-imidazo[4,5-d]pyridazine] | 83.4 |
| CC(C)(C)c1ccc(-c2cc(Cn3cc4nc(-c5ccccc5F)nc-4cn3)on2)cc1 [Compound 283, 5-[3-(4-tert-Butyl-phenyl)-isoxazol-5-ylmethyl]-2-(2-fluoro-phenyl)-5H-imidazo[4,5-d]pyridazine] | 66.7 |
| N#Cc1ccc(-c2cc(Cn3cc4nc(-c5ccccc5F)nc-4cn3)on2)cc1 [Compound 284, 4-{5-[2-(2-Fluoro-phenyl)-imidazo[4,5-d]pyridazin-5-ylmethyl]-isoxazol-3-yl}-benzonitrile] | 77.4 |
| Fc1ccccc1-c1nc2cnn(Cc3cc(-c4ccc(Br)cc4)no3)cc-2n1 [Compound 285, 5-[3-(4-Bromo-phenyl)-isoxazol-5-ylmethyl]-2-(2-fluoro-phenyl)-5H-imidazo[4,5-d]pyridazine] | 90.1 |
| Fc1ccccc1-c1nc2cnn(Cc3cc(-c4ccc(Br)cn4)no3)cc-2n1 [Compound 289, 5-[3-(5-Bromo-pyridin-2-yl)-isoxazol-5-ylmethyl]-2-(2-fluoro-phenyl)-5H-imidazo[4,5-d]pyridazine] | 57.3 |
| CC(=O)c1ccc(-c2cc(Cn3cc4nc(-c5cccc(F)c5F)nc-4cn3)on2)cc1 [Compound 290, 1-(4-{5-[2-(2,3-Difluoro-phenyl)-imidazo[4,5-d]pyridazin-5-ylmethyl]-isoxazol-3-yl}-phenyl)-ethanone] | 95.2 |
| Fc1ccccc1-c1nc2cnn(Cc3nnc(-c4ccc(Cl)cc4)o3)cc-2n1 [Compound 291, 5-[5-(4-Chloro-phenyl)-[1,3,4]oxadiazol-2-ylmethyl]-2-(2-fluoro-phenyl)-5H-imidazo[4,5-d]pyridazine] | 22.5 |
| Fc1cccc(-c2nc3cnn(Cc4onc(-c5ccc(C(F)(F)F)cc5C(F)(F)F)c4Br)cc-3n2)c1F [Compound 292, 5-[3-(2,4-Bis-trifluoromethyl-phenyl)-4-bromo-isoxazol-5-ylmethyl]-2-(2,3-difluoro-phenyl)-5H-imidazo[4,5-d]pyridazine] | 64.1 |
| Fc1cccc(-c2nc3cnn(Cc4cc(-c5ccc(Br)cc5C(F)(F)F)no4)cc-3n2)c1F [Compound 293, 5-[3-(4-Bromo-2-trifluoromethyl-phenyl)-isoxazol-5-ylmethyl]-2-(2,3-difluoro-phenyl)-5H-imidazo[4,5-d]pyridazine] | 99.7 |

| Structure (SMILES) | inhibition at 10 µM [%] |
| --- | --- |
| COc1ccc(-c2cc(Cn3cc4nc(-c5cccc(F)c5F)nc-4cn3)on2)c(OC)c1 [Compound 294, 2-(2,3-Difluoro-phenyl)-5-[3-(2,4-dimethoxy-phenyl)-isoxazol-5-ylmethyl]-5H-imidazo[4,5-d]pyridazine] | 50 |
| Fc1cccc(-c2nc3cnn(Cc4cc(-c5ccc(OCC(F)(F)F)cc5)no4)cc-3n2)c1F [Compound 295, 2-(2,3-Difluoro-phenyl)-5-{3-[4-(2,2,2-trifluoro-ethoxy)-phenyl]-isoxazol-5-ylmethyl}-5H-imidazo[4,5-d]pyridazine] | 100 |
| CCCOc1ccc(-c2cc(Cn3cc4nc(-c5cccc(F)c5F)nc-4cn3)on2)c(F)c1 [Compound 296, 2-(2,3-Difluoro-phenyl)-5-[3-(2-fluoro-4-propoxy-phenyl)-isoxazol-5-ylmethyl]-5H-imidazo[4,5-d]pyridazine] | 99.5 |
| COc1cc(OC(F)(F)F)ccc1-c1cc(Cn2cc3nc(-c4cccc(F)c4F)nc-3cn2)on1 [Compound 297, 2-(2,3-Difluoro-phenyl)-5-[3-(2-methoxy-4-trifluoromethoxy-phenyl)-isoxazol-5-ylmethyl]-5H-imidazo[4,5-d]pyridazine] | 90.8 |
| COc1ccc(-c2cc(Cn3cc4nc(-c5cccc(F)c5F)nc-4cn3)on2)c(OC(F)(F)F)c1 [Compound 298, 2-(2,3-Difluoro-phenyl)-5-[3-(4-methoxy-2-trifluoromethoxy-phenyl)-isoxazol-5-ylmethyl]-5H-imidazo[4,5-d]pyridazine] | 99.9 |
| Fc1ccc(F)c(-c2nc3cnn(Cc4cc(-c5ccc(C(F)(F)F)cc5C(F)(F)F)no4)cc-3n2)c1 [Compound 299, 5-[3-(2,4-Bis-trifluoromethyl-phenyl)-isoxazol-5-ylmethyl]-2-(2,5-difluoro-phenyl)-5H-imidazo[4,5-d]pyridazine] | 79.3 |
| CCCCc1ccc(-c2cc(Cn3cc4nc(-c5cccc(F)c5F)nc-4cn3)on2)cn1 [Compound 301, 5-[3-(6-Butyl-pyridin-3-yl)-isoxazol-5-ylmethyl]-2-(2,3-difluoro-phenyl)-5H-imidazo[4,5-d]pyridazine] | 97.3 |
| CCCCc1ccc(-c2cc(Cn3cc4nc(-c5cccc(F)c5F)nc-4cn3)on2)c(F)c1 [Compound 303, 5-[3-(4-Butyl-2-fluoro-phenyl)-isoxazol-5-ylmethyl]-2-(2,3-difluoro-phenyl)-5H-imidazo[4,5-d]pyridazine] | 99.8 |
| Cc1ccc(-c2cc(Cn3cc4nc(-c5cccc(F)c5F)nc-4cn3)on2)c(C(F)(F)F)c1 [Compound 304, 2-(2,3-Difluoro-phenyl)-5-[3-(4-methyl-2-trifluoromethyl-phenyl)-isoxazol-5-ylmethyl]-5H-imidazo[4,5-d]pyridazine] | 99.7 |
| CC(C)c1ccc(-c2cc(Cn3cc4nc(-c5cccc(F)c5F)nc-4cn3)on2)cc1 [Compound 305, 2-(2,3-Difluoro-phenyl)-5-[3-(4-isopropyl-phenyl)-isoxazol-5-ylmethyl]-5H-imidazo[4,5-d]pyridazine] | 99.4 |
| Fc1cccc(-c2nc3cnn(Cc4cc(-c5ccc(I)cc5)no4)cc-3n2)c1F [Compound 306, 2-(2,3-Difluoro-phenyl)-5-[3-(4-iodo-phenyl)-isoxazol-5-ylmethyl]-5H-imidazo[4,5-d]pyridazine] | 99.9 |
| Cc1ccc(-c2cc(Cn3cc4nc(-c5cccc(F)c5F)nc-4cn3)on2)c(C)c1 [Compound 309, 2-(2,3-Difluoro-phenyl)-5-[3-(2,4-dimethyl-phenyl)-isoxazol-5-ylmethyl]-5H-imidazo[4,5-d]pyridazine] | 100 |
| Cc1cc(C#Cc2ccc(-c3cc(Cn4cc5nc(-c6cccc(F)c6F)nc-5cn4)on3)cc2)cc(C)n1 [Compound 310, 2-(2,3-Difluoro-phenyl)-5-{3-[4-(2,6-dimethyl-pyridin-4-ylethynyl)-phenyl]-isoxazol-5-ylmethyl}-5H-imidazo[4,5-d]pyridazine] | 99.4 |
| Cc1cc(CCc2ccc(-c3cc(Cn4cc5nc(-c6cccc(F)c6F)nc-5cn4)on3)cc2)cc(C)n1 [Compound 311, 2-(2,3-Difluoro-phenyl)-5-(3-{4-[2-(2,6-dimethyl-pyridin-4-yl)-ethyl]-phenyl}-isoxazol-5-ylmethyl)-5H-imidazo[4,5-d]pyridazine] | 96.7 |
| COCCCOc1ccc(-c2cc(Cn3cc4nc(-c5cccc(F)c5F)nc-4cn3)on2)cc1 [Compound 312, 2-(2,3-Difluoro-phenyl)-5-{3-[4-(3-methoxy-propoxy)-phenyl]-isoxazol-5-ylmethyl}-5H-imidazo[4,5-d]pyridazine] | 98.1 |
| COc1ccc(-c2cc(Cn3cc4nc(-c5cccc(F)c5F)nc-4cn3)on2)c(F)c1 [Compound 313, 2-(2,3-Difluoro-phenyl)-5-[3-(2-fluoro-4-methoxy-phenyl)-isoxazol-5-ylmethyl]-5H-imidazo[4,5-d]pyridazine] | 99.2 |
| CC(F)(F)c1ccc(-c2cc(Cn3cc4nc(-c5cccc(F)c5F)nc-4cn3)on2)cc1 [Compound 314, 5-{3-[4-(1,1-Difluoro-ethyl)-phenyl]-isoxazol-5-ylmethyl}-2-(2,3-difluoro-phenyl)-5H-imidazo[4,5-d]pyridazine] | 99.8 |
